The values below come from patent US20250130221A1, “METHOD OF IDENTIFYING AGENTS FOR THE TREATMENT OF CYSTIC FIBROSIS CAUSED BY THE MUTATION F508DEL” (FACULDADE DE CIÊNCIAS DA UNIVERSIDADE DE LISBOA, priority 2022, published 2025).

The subject of data set [1] is GRK5. The conditions noted are these: covalent binding; cited from earlier work.
The target in data set [2] is T1, GRK2 (Homo sapiens, UniProt P25098).
T1 sequence (P25098 1-689): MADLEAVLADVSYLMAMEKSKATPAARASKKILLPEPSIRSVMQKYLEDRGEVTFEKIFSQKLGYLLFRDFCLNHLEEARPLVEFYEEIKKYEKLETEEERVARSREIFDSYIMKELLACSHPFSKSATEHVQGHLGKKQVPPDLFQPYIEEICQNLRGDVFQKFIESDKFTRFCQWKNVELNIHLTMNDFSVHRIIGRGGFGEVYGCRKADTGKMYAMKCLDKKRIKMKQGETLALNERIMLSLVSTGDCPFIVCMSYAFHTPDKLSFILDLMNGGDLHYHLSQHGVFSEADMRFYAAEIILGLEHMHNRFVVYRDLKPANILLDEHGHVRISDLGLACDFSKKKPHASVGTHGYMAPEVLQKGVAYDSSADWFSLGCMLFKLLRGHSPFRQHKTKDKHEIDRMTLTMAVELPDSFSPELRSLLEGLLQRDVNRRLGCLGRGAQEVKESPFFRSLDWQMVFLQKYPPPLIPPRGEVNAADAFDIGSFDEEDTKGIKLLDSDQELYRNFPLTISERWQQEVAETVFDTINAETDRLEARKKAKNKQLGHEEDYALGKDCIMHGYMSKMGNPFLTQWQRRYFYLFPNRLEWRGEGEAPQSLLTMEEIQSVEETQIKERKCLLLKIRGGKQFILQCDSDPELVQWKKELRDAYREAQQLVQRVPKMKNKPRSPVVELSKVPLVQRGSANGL
The note with it: GRK5 over GRK2; cited from earlier work.

Data set [3] concerns CFBE cells expressing F508del-CFTR. The data set is described as follows: Cellular toxicity in CFBE cells during dose-response WB assay. The conditions noted are these: concentrations higher than 1 μM. Type of data set: cell-based, human.
For data set [4], the target named is T2, F508del-CFTR (Homo sapiens, UniProt P13569, DEL508-508).
T2 construct: expressed in transfected cells; host or cells: CFBE41o- cells constitutively (stably) expressing F508del-CFTR
The data set is described as follows: Halide-sensitive YFP fluorescence quenching in CFBE cells expressing F508del-CFTR. The format is cell-based. The conditions noted are these: for additivity to CFTR correctors, HS-YFP quenching rate (F508del-CFTR functional rescue): 1 μM with VX-661 (5 μM), VX-445 (3 μM) or VX-661+VX-445, n=4. How it is done: CFBE41o- cells constitutively co-expressing the HS-yellow fluorescent protein (HS-YFP) YFP-H148Q/I152L as well as wt- or F508del-CFTR (described in (Sondo et al., 2011)) were a kind gift from Dr Nicoletta Pedemonte (IRCCS Istituto G. Gaslini, Genoa, Italy). These cells were cultured in Minimum Essential Medium (MEM) supplemented with 10% FBS, 2 mM L-glutamine, puromycin 2 μg/ml and G418 […] (Sigma, #A1720) at 37° C. in 5% CO2.
This assay was used to assess whether the enhanced F508del-CFTR traffic recorded when the reporter cell line was transfected with confirmed hit siRNAs also corresponded to enhanced F508del-CFTR ionic transport function. As in the microscopy-based screens, a 72 h siRNA transfection time was selected. The assay followed a previously reported protocol (Sondo et al., 2011). CFBE cells co-expressing HS-YFP and wt- or F508del-CFTR were grown to confluency (37° C., 5% CO2) and split to 50% confluency. On the following day, the experiment was initiated by seeding cells onto siRNA-coated 96 well plates using a peristaltic pump (ThermoFisher Multidrop™ Combi). Each well was seeded with 10,000 cells. […] After the stimulation period, each plate was transferred to a fluorescence plate reader equipped with fast reagent injectors (Tecan Infinite F200 Pro) and excitation (BP 475-495 nm) and emission ([…]) filters suitable for YFP fluorescence. Each assay consisted of a continuous 16 s fluorescence reading with 2 s before and 14 s after injection of 160 μl of a PBS where Cl^− had been replaced by I^− (final I^− concentration in the well: 100 mM). The pH of all PBS-containing solutions was rigorously set at pH 7.4 immediately before use to avoid artifacts in the fluorescence reading. The resulting kinetics was background subtracted and normalized to the pre-injection fluorescence value. To determine the fluorescence quenching rate associated with I^− influx, the final 14 s of the kinetics in each well were fitted with a single decay exponential curve and the derivative at the injection time (i.e. the quenching rate) was extracted from the curve parameters. […]

Data set [5] concerns the target T2, F508del-CFTR. The data set is described as follows: Western blot of F508del-CFTR processing (bands B and C) in CFBE cells. Type of data set: cell-based. The note with it: for F508del-CFTR band C rescue: CFBE cells stably expressing F508del-CFTR, vs DMSO, n=3; for additivity to CFTR correctors, bands C and B: 1 μM with VX-661 (5 μM), VX-445 (3 μM) or VX-661+VX-445, n=4; for CFTR processing [C/(B+C)]: dose-response 0-1 μM, proportional increase in band B.

Data set [6] deals with GRK2. The conditions noted are these: cited from earlier work.
Data set [7] deals with PKA. The conditions noted are these: statement in words; cited from earlier work.
Data set [8] deals with T3, GRK1 (Bos taurus, UniProt P28327).
T3 sequence (P28327 1-561): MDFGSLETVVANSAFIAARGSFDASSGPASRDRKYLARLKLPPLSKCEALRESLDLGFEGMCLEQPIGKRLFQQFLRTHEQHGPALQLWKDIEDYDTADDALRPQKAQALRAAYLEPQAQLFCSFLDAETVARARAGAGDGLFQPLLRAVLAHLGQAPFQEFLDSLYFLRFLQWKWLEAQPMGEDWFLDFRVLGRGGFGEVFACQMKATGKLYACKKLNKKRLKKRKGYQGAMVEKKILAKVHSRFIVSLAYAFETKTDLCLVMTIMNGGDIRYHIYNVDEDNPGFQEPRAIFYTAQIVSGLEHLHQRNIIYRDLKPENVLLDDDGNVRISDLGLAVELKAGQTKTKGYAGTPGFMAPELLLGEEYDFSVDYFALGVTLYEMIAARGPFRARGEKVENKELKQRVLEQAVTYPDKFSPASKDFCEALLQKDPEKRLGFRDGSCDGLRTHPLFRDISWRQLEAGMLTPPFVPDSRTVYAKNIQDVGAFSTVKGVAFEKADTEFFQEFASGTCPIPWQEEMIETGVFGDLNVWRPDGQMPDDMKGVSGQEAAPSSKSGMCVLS
The conditions noted are these: cited from earlier work.

Setting [9] is: listed as (R,Z)-3-((4-(2-Bromoacetamido)-3,5-dimethyl-1H-pyrrol-2-yl)-methylene)-2-oxo-N-.

T2 sequence (P13569 with tags, fused parts or gaps DEL508-508): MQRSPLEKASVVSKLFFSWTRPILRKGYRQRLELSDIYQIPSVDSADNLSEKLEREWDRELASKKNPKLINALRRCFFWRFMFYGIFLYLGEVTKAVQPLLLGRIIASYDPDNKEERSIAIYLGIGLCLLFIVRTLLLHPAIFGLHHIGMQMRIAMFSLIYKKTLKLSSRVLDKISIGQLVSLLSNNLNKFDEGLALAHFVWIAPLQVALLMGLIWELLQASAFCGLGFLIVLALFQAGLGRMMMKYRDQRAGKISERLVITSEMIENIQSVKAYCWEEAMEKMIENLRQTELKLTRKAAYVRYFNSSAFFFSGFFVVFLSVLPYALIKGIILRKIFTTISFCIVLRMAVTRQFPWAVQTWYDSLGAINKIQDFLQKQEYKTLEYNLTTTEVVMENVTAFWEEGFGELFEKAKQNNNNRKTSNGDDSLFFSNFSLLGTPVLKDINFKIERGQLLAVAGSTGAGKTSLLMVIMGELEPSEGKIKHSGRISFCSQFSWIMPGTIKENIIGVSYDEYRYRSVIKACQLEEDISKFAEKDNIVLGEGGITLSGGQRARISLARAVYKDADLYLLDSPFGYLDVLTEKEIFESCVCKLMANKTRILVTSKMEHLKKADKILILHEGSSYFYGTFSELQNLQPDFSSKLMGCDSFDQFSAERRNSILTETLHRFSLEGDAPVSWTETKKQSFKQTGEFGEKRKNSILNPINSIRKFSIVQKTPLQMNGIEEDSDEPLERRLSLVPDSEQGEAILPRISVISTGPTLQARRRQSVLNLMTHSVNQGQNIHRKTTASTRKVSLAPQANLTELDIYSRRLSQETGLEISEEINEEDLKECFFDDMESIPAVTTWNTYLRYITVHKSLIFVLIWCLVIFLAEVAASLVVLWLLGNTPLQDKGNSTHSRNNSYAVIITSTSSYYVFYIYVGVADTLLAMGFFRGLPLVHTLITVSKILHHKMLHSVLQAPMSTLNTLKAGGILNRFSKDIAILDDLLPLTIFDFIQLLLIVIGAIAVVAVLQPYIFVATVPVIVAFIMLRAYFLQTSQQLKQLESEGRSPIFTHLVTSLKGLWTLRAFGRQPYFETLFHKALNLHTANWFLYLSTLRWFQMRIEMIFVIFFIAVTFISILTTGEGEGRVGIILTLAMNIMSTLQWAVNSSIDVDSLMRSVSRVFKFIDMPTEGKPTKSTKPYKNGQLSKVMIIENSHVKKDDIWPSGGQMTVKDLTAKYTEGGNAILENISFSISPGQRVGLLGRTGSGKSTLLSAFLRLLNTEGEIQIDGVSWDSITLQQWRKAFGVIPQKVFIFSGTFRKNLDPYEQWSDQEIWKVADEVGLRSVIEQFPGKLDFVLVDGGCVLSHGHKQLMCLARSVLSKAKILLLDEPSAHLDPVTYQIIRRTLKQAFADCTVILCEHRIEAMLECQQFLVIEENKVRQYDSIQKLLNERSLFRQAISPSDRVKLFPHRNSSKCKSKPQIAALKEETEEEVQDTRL

The IC50 is the concentration needed to halve the response being measured. Consider `Cc1[nH]c(/C=C2\C(=O)Nc3ccc(C(=O)N[C@H](C)c4ccccc4)cc32)c(C)c1NC(=O)CBr` [9 g, (R,Z)-3-((4-(2-Bromoacetamido)-3,5-dimethyl-1H-pyrrol-2-yl)-methylene)-2-oxo-N-(1-phenylethyl)indoline-5-carboxamide], for which, in data set [1], the IC50 was 0.0086 µM. Besides, in data set [2], the “selectivity against GRK2” value was 1400 fold. Moreover, the cellular toxicity result in data set [3] is listed as “cellular toxicity”. Further, the “additivity to CFTR correctors, HS-YFP quenching rate (F508del-CFTR functional rescue)” value was “additive to all corrector treatments regarding F508del-CFTR functional rescue” in data set [4] and “additivity in all conditions” in data set [4] (setting [9]). In data set [4] (low micromolar concentrations), the F508del-CFTR function rescue result was “significant F508del-CFTR processing and function rescue”. Moreover, the “F508del-CFTR band C rescue” value in data set [5] (0.3 μM) is recorded as “Statistically significant band C rescue”; in data set [5] (0.3 μM, listed as (R,Z)-3-((4-(2-Bromoacetamido)-3,5-dimethyl-1H-pyrrol-2-yl)-methylene)-2-oxo-N-), “statistically significant band C rescue”; in data set [5] (1.0 μM), “Statistically significant band C rescue”; in data set [5] (1.0 μM, listed as (R,Z)-3-((4-(2-Bromoacetamido)-3,5-dimethyl-1H-pyrrol-2-yl)-methylene)-2-oxo-N-), “statistically significant band C rescue”. The “additivity to CFTR correctors, bands C and B” value was “additive to all corrector treatments regarding bands C and B” in data set [5]; “additivity” in data set [5] (setting [9]). In addition, the “band C rescue relative to VX-661” value in data set [5] (at 0.3 and 1.0 μM) is listed as 50 % of VX-661. For the same molecule, the entries for the “CFTR processing [C/(B+C)]” value in data set [5] and in data set [5] (setting [9]) were “not significantly changed” and “without improved CFTR processing”, respectively. Moreover, the F508del-CFTR processing rescue result in data set [5] (low micromolar concentrations) was “significant F508del-CFTR processing and function rescue”. In data set [5] (low micromolar concentrations, VX-809, VX-445 and VX-661), the “additivity of rescue to correctors (summary statement)” value is “additive to VX-809, VX-445 and VX-661”.

With `CC1=C(C(=O)Nc2ccc3[nH]ncc3c2)C(c2ccc(F)c(C(=O)NCc3ccccn3)c2)NC(=O)N1` (stereo not drawn) [CCG215022], the values for the IC50 in data set [6] and in data set [8] were 0.15 ± 0.07 µM and 3.9 ± 1 µM, respectively. For the same molecule, in data set [7], the “effect on PKA” value is given as “does not affect”. In addition, the “effect on GRK1” value in data set [8] (statement in words) is reported as “does not affect”.
